Results published in patent EP4740947A1, “PHARMACEUTICAL COMBINATION OF EGFR KINASE INHIBITOR AND C-MET KINASE INHIBITOR FOR TREATING TUMOR DISEASES” (Jiangsu AoSaiKang Pharmaceutical Co., Ltd., priority 2023, dated 2025).
“And” between values parts separate entries of the source, which are not always exact repeats. Identical values can stand only once.

System: LD1-0025-200662 human lung cancer tissue
Test: Efficacy study in patient derived xenograft (PDX) tumor model established with LD1-0025-200662 human lung cancer tissue
Assay type: in vivo, NU/NU mice
Settings: for Complete tumor regression (%): rate of mice, observed by naked eyes on day 21; for T/C% Day 21: relative tumor proliferation rate; for T/C (%) (tumor weight): tumor weight vs vehicle
Protocol: NU/NU mice were subcutaneously inoculated with human lung cancer tissue LD1-0025-200662 to establish an in-vivo xenograft tumor model, and then the efficacy of the test drugs ASK-MET alone, ASK-EGFR alone, ASK-MET+ASK-EGFR in combination and RefT+ ASK-EGFR in combination in the model were evaluated.
LD1-0025-200662 (see Table 8), a patient derived human lung cancer tissue, was sub-cultured to FP3+3 passages for this efficacy test. Table 8. Xenograft tumor model
NU/NU mice, female, age: 42-62 days, weight: 18-22 g, purchased from Zhejiang Vital River Laboratory Animal Technology Co., Ltd. (Production license: SCXK(Zhe)2019-0001).
• Vehicle: 20% solutol/80% 100 mM sodium acetate buffer pH 5.5; • ASK-MET: hydrochloride of the compound of Formula (II), prepared with 20% solutol/80% 100 mM sodium acetate buffer pH 5.5, concentration: 0.1 mg/mL, 0.3 mg/mL; • ASK-EGFR: compound of Formula (I), prepared with 0.5% sodium carboxymethyl cellulose solution (0.5%CMC-Na), concentration: 2 mg/mL; • RefT: prepared with 20% solutol/80% 100 mM sodium acetate buffer pH 5.5, concentration: 0.3 mg/mL; RefT is a small-molecule MET kinase inhibitor approved by USFDA.
Immunodeficient mice were subcutaneously inoculated with LD1-0025-200662 tumor tissue, and observed continuously till tumor formation. When the tumor volume reached about 1000 mm^3, the tumor tissue was peeled off and cut into tumor tissue with a size of about 3 mm × 3 mm × 3 mm (about 50-90 mg), and inoculated subcutaneously in NU/NU mice. The inoculated mice were observed and the growth of tumor was monitored. When the average tumor volume of tumor-bearing mice reached 193.40 mm^3, the mice were randomly divided into groups, administered and observed. The tumor volume and weight of all tumor-bearing mice were measured before grouping, and the tumor-bearing mice were randomly grouped according to the measured tumor volume. According to the principle of random block design, the mice were first divided into blocks according to the tumor volume, and then the mice in each block were randomly assigned to each treatment group. Table 9. Administration and treatment
5.1 Measurement of tumor volume and weight of tumor-bearing mice: The measurement was made twice a week by using a vernier caliper, and the tumor volume was calculated by a formula V = 0.5 × a × b^2, where a and b were respectively the major and minor diameters of the tumor.
5.2 Tumor growth inhibition TGI (%)= [1-(Ti-T0) / (Vi-V0)] × 100, where Ti-T0>0; TGI (%) = [1-(Ti-T0)/ T0] × 100, where Ti-T0<0. T0 was the average tumor volume at the first administration in the treatment group, Ti was the average tumor volume at a certain measurement after administration in the treatment group, V0 was the average tumor volume at the first administration in the vehicle control group, and Vi was the average tumor volume at a certain measurement after administration in the vehicle control group.
5.3 Relative tumor proliferation rate T/C (%): The calculation formula is as follows: T/C % = TRTV / CRTV × 100 % (TRTV: RTV of the treatment group; CRTV: RTV of the negative control group). According to the results of tumor measurement, the relative tumor volume (RTV) was calculated by a formula RTV = Vt / V0, where V0 was the average tumor volume measured at the time of grouping for administration (that is, d0), Vt was the average tumor volume measured at a certain measurement, and TRTV and CRTV data of the same day was used.
5.4 Synergistic effect in combined treatment group: Jin's formula Q=E(a+b)/[Ea+Eb-Ea × Eb], where Ea was TGI of a drug alone, and Q value>1 reflected that drug combination has a synergistic effect.
5.5 After the experiment, the tumor was stripped, weighed and photographed. T/Cweight%= Tweight /Vweight × 100%, where Tweight was the average tumor weight of the compound group at the end of the experiment, and Vweight was the average tumor weight of the vehicle control group at the end of the experiment.
All data is expressed as Mean±SEM. […]

[1] = ASK-MET 1 mg/kg p.o. QD×(D0-D7) (G3)
[2] = ASK-MET 3 mg/kg p.o. QD×(D0-D7) (G4)
[3] = Day 21, ASK-MET 1 mg/kg p.o. QD×(D0-D7) (G3)
[4] = Day 21, ASK-MET 3 mg/kg p.o. QD×(D0-D7) (G4)
[5] = ASK-EGFR 20 mg/kg p.o. QD×21 (G2)
[6] = Day 21, ASK-EGFR 20 mg/kg p.o. QD×21 (G2)

Q: How did the “complete tumor regression of tumor-bearing mice (in words)” value (ASK-MET 1 mg/kg (G3)) turn out when `CC(C)(O)CN1CCC(COc2cnc(-c3cccc(Cn4c(=O)ccn5c6cc(C#N)ccc6nc45)c3)nc2)CC1` [ASK-MET] was run?
A: varying degrees of complete tumor regression

Q: What about the “inhibition on the growth of subcutaneous xenograft tumor” value (ASK-MET 1 mg/kg (G3)) of the same compound?
A: statistically significant inhibition

Q: And the “complete tumor regression of tumor-bearing mice (in words)” value (ASK-MET 3 mg/kg (G4))?
A: varying degrees of complete tumor regression

Q: And the “inhibition on the growth of subcutaneous xenograft tumor” value (ASK-MET 3 mg/kg (G4))?
A: statistically significant inhibition

Q: And the “Tumor volume (mm^3) (Mean ± SEM) Day 0” value [1]?
A: 168.78±15.38 mm^3

Q: And the “Tumor volume (mm^3) (Mean ± SEM) Day 0” value [2]?
A: 170.65±12.40 mm^3

Q: What about the “Tumor volume (mm^3) (Mean ± SEM) Day 21” value [3] of the same compound?
A: 116.01±35.11 mm^3

Q: And the “Tumor weight (g) (Mean ± SEM) Day 21 after treatment” value [3]?
A: 0.12 ± 0.04 g

Q: What about the “TGI% Day 21” value (Day 21, ASK-MET 1 mg/kg p.o. QD×(D0-D7) (G3), above 100 = regression by formula of b100) of the same compound?
A: 131.27%

Q: And the “Tumor volume (mm^3) (Mean ± SEM) Day 21” value [4]?
A: 3.54±2.35 mm^3

Q: What about the “Tumor weight (g) (Mean ± SEM) Day 21 after treatment” value [4] of the same compound?
A: 0.01 ± 0.00 g

Q: What about the “TGI% Day 21” value (Day 21, ASK-MET 3 mg/kg p.o. QD×(D0-D7) (G4), above 100 = regression by formula of b100) of the same compound?
A: 197.93%

Q: And the “Complete tumor regression (%)” value [1]?
A: 12.5% and 12.5 (1/8) %

Q: And the “Complete tumor regression (%)” value [2]?
A: 75% and 75 (6/8) %

Q: What about the “T/C% Day 21” value [3] of the same compound?
A: 9.27%

Q: What about the “T/C% Day 21” value [4] of the same compound?
A: 0.28%

Q: And the “T/C (%) (tumor weight)” value [3]?
A: 9.18%

Q: And the “T/C (%) (tumor weight)” value [4]?
A: 0.39%

Q: With `C=CC(=O)Nc1cc(Nc2ncc(Cl)c(Nc3ccc4ccccc4c3)n2)c(OC)cc1N(C)CCN(C)C` [ASK-EGFR, N-((5-((5-chloro-4-((naphthalen-2-yl)amino))pyrimidin-2-yl)amino)-2-((N-methyl-N-dimethylaminoethyl)amino)-4-methoxyphenyl) acrylamide] as the compound, how does the “Tumor volume (mm^3) (Mean ± SEM) Day 0” value [5] read?
A: 169.31±14.43 mm^3

Q: And the “Tumor volume (mm^3) (Mean ± SEM) Day 21” value [6]?
A: 1239.58±146.6 mm^3

Q: And the “Tumor weight (g) (Mean ± SEM) Day 21 after treatment” value [6]?
A: 1.19 ± 0.16 g

Q: And the “TGI% Day 21” value (Day 21 vs vehicle, ASK-EGFR 20 mg/kg p.o. QD×21 (G2))?
A: 1.96%

Q: What about the “Complete tumor regression (%)” value [5] of the same compound?
A: 0.00% and 0 (0/8) %

Q: What about the “T/C% Day 21” value [6] of the same compound?
A: 98.77%

Q: What about the “T/C (%) (tumor weight)” value [6] of the same compound?
A: 93.41%
